Like-named read-outs stand apart in the source and are kept apart here.
Experiments:
Type in all cases: in vivo
[1] = tested on: diamondback moth (Plutella xylostella L.); experiment: Test E: diamondback moth control through ingestion only, sprayed cabbage leaf tissue (Dipel), mortality after 4 days; details: Table 6c, read-out: % Mortality (obs)
Description: The pest control protection afforded by the mixtures or compositions is not limited, however, to these species. The analysis of enhanced activity between the mixtures or compositions was determined using Colby's equation. The average % mortality data for the test compounds alone were inserted into the Colby's equation. If the observed (obs) average % mortality was higher than “p”, the expected (exp) % mortality, the mixture or composition had enhanced effects. If the observed average % mortality was equal to or lower than the expected mortality, the mixture or composition either had no enhanced effect. For bioassays where insect feeding damage was evaluated, enhanced activity is identified when the observed plant damage is less than the expected plant damage rating; ratings ranged between 0 (no damage) and 10 (dead plant) and each value was converted to a % plant protection. 100−(Obs Plant Damage*10)
For evaluating control of diamondback moth (Plutella xylostella L.) through ingestion only, the test substance Dipel® (active ingredient Bacillus thuringiensis kurstaki) was formulated by diluting in water and then adding an MSO based adjuvant at 0.1% v/v. Cabbage plants were sprayed with Dipel® to runoff and allowed to dry for three hours. Once dry, plants leaf tissue was excised and one piece was placed into one well in an eight well tray. Test units were maintained in a growth chamber at 24-25° C. and 70% relative humidity.

[2] = tested on: silverleaf whitefly (Bemisia argentifolii Bellows and Perring); experiment: Test A: silverleaf whitefly control on cotton or soybean plants, spray, insect mortality after 13 days; details: Bemisia argentifolii, applied alone, read-out: % Mortality (obs)
In short: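 Cotton (12–14-day) or soybean (5–7-day) plants carrying whitefly eggs were sprayed with compound in 10% acetone/water with non-ionic surfactant. Plants were held 13 days at 28°C and 50–70% RH; mortality was averaged over three replicates. Mixture enhancement was judged against Colby-expected values.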

[3] = tested on: Western Flower Thrips (Frankliniella occidentalis Pergande); experiment: Test B: Western Flower Thrips control on bean plants, plant damage rating converted to % plant protection after 7 days; details: for Plant Damage (obs): Table 3a; for Plant Damage (obs) / Plant Protection (obs): applied alone
In short: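 Sprayed 5- to 7-day-old bean (var. Soleil) plants, 3 replicates, dried 1 h, then infested with 22 to 27 adult thrips and held 7 days at 25° C, 45-55% RH. Feeding damage rated 0-10 and converted as 100−(rating×10) to % plant protection.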

**Q.** `O=C(NC1(C(F)F)CC1)c1cccc2nn(-c3cccnc3)cc12` [Cpd 5, N-[1-(difluoromethyl)cyclopropyl]-2-(3-pyridinyl)-2H-indazole-4-carboxamide] was tested. Which mortality at 50 ppm [1] did it give?
**A.** 21%

**Q.** And the mortality at 250 ppm [1]?
**A.** 25%

**Q.** And the mortality at 50 ppm ([2]; 2 h, Table 2h)?
**A.** 0%

**Q.** And the mortality at 250 ppm ([2]; 2 h, Table 2h)?
**A.** 6.9%

**Q.** What about the mortality at 50 ppm ([2]; 48 h, Table 2d) of the same compound?
**A.** 8.9%

**Q.** And the mortality at 250 ppm ([2]; 48 h, Table 2d)?
**A.** 11.7%

**Q.** What about the mortality at 50 ppm ([2]; Table 2a) of the same compound?
**A.** 17%

**Q.** And the mortality at 250 ppm ([2]; Table 2a)?
**A.** 13.5%

**Q.** What about the mortality at 50 ppm ([2]; Table 2b) of the same compound?
**A.** 49%

**Q.** And the mortality at 250 ppm ([2]; Table 2b)?
**A.** 19.2%

**Q.** And the mortality at 50 ppm ([2]; Table 2c)?
**A.** 56.5%

**Q.** And the mortality at 250 ppm ([2]; Table 2c)?
**A.** 41.1%

**Q.** And the mortality at 50 ppm ([2]; Table 2e)?
**A.** 56.3%

**Q.** What about the mortality at 250 ppm ([2]; Table 2e) of the same compound?
**A.** 11.2%

**Q.** What about the mortality at 50 ppm ([2]; Table 2f) of the same compound?
**A.** 84.4%

**Q.** And the mortality at 250 ppm ([2]; Table 2f)?
**A.** 55.1%

**Q.** And the mortality at 50 ppm ([2]; Table 2g)?
**A.** 30%

**Q.** And the mortality at 250 ppm ([2]; Table 2g)?
**A.** 73.4%

**Q.** What about the mortality at 50 ppm ([2]; Table 2i) of the same compound?
**A.** 0%

**Q.** And the mortality at 250 ppm ([2]; Table 2i)?
**A.** 0%

**Q.** What about the pest or weed control at 0.4 ppm ([3]; Frankliniella occidentalis, 168 h, Table 3e, 0.4 ppm, read-out: Plant Protection (obs)) of the same compound?
**A.** 70%

**Q.** What about the pest or weed control at 2 ppm ([3]; Frankliniella occidentalis, 168 h, Table 3e, 2 ppm, read-out: Plant Protection (obs)) of the same compound?
**A.** 26.7%

**Q.** And the pest or weed control at 0.4 ppm ([3]; Frankliniella occidentalis, 168 h, Table 3f, 0.4 ppm, read-out: Plant Protection (obs))?
**A.** 33.3%

**Q.** And the pest or weed control at 2 ppm ([3]; Frankliniella occidentalis, 168 h, Table 3f, 2 ppm, read-out: Plant Protection (obs))?
**A.** 60%

**Q.** What about the pest or weed control at 0.4 ppm ([3]; Frankliniella occidentalis, 168 h, Table 3g, 0.4 ppm, read-out: Plant Protection (obs)) of the same compound?
**A.** 13.3%

**Q.** What about the pest or weed control at 2 ppm ([3]; Frankliniella occidentalis, 168 h, Table 3g, 2 ppm, read-out: Plant Protection (obs)) of the same compound?
**A.** 26.7%

**Q.** What about the pest or weed control at 0.4 ppm ([3]; Frankliniella occidentalis, 168 h, Table 3d, 0.4 ppm, read-out: Plant Protection (obs)) of the same compound?
**A.** 43.3%

**Q.** What about the pest or weed control at 2 ppm ([3]; Frankliniella occidentalis, 168 h, Table 3d, 2 ppm, read-out: Plant Protection (obs)) of the same compound?
**A.** 63.3%

**Q.** What about the “Plant Damage (obs)” value ([3]; 0.4 ppm) of the same compound?
**A.** 20.0%

**Q.** What about the “Plant Damage (obs)” value ([3]; 2 ppm) of the same compound?
**A.** 40.0%

**Q.** What about the “Plant Protection (obs)” value ([3]; Table 3b, 0.4 ppm) of the same compound?
**A.** 23.3%

**Q.** What about the “Plant Protection (obs)” value ([3]; Table 3b, 2 ppm) of the same compound?
**A.** 36.7%

**Q.** And the “Plant Protection (obs)” value ([3]; Table 3c, 0.4 ppm)?
**A.** 16.7%

**Q.** And the “Plant Protection (obs)” value ([3]; Table 3c, 2 ppm)?
**A.** 40.0%

**Q.** For `CC1(NC(=O)c2cccc3nn(-c4cccnc4)cc23)CC1` [Cpd 4, N-(1-methylcyclopropyl)-2-(3-pyridinyl)-2H-indazole-4-carboxamide], which mortality at 50 ppm [1] is on record?
**A.** 12.5%

**Q.** What about the mortality at 250 ppm [1] of the same compound?
**A.** 17%

**Q.** And the mortality at 50 ppm ([2]; 2 h, Table 2h)?
**A.** 0.9%

**Q.** What about the mortality at 250 ppm ([2]; 2 h, Table 2h) of the same compound?
**A.** 9.2%

**Q.** What about the mortality at 50 ppm ([2]; 48 h, Table 2d) of the same compound?
**A.** 4.9%

**Q.** What about the mortality at 250 ppm ([2]; 48 h, Table 2d) of the same compound?
**A.** 8.3%

**Q.** And the mortality at 50 ppm ([2]; Table 2a)?
**A.** 5.9%

**Q.** What about the mortality at 250 ppm ([2]; Table 2a) of the same compound?
**A.** 11.1%

**Q.** And the mortality at 50 ppm ([2]; Table 2b)?
**A.** 46.7%

**Q.** And the mortality at 250 ppm ([2]; Table 2b)?
**A.** 20%

**Q.** And the mortality at 50 ppm ([2]; Table 2c)?
**A.** 16.1%

**Q.** What about the mortality at 250 ppm ([2]; Table 2c) of the same compound?
**A.** 20.5%

**Q.** What about the mortality at 50 ppm ([2]; Table 2e) of the same compound?
**A.** 29%

**Q.** And the mortality at 250 ppm ([2]; Table 2e)?
**A.** 38.3%

**Q.** What about the mortality at 50 ppm ([2]; Table 2f) of the same compound?
**A.** 15%

**Q.** And the mortality at 250 ppm ([2]; Table 2f)?
**A.** 17.9%

**Q.** And the mortality at 50 ppm ([2]; Table 2g)?
**A.** 30.6%

**Q.** What about the mortality at 250 ppm ([2]; Table 2g) of the same compound?
**A.** 23.1%

**Q.** What about the mortality at 50 ppm ([2]; Table 2i) of the same compound?
**A.** 7%

**Q.** What about the mortality at 250 ppm ([2]; Table 2i) of the same compound?
**A.** 8%

**Q.** And the pest or weed control at 11.1 ppm ([3]; Frankliniella occidentalis, 168 h, Table 3e, 11.1 ppm, read-out: Plant Protection (obs))?
**A.** 60%

**Q.** What about the pest or weed control at 36.8 ppm ([3]; Frankliniella occidentalis, 168 h, Table 3e, 36.8 ppm, read-out: Plant Protection (obs)) of the same compound?
**A.** 76.7%

**Q.** What about the pest or weed control at 11.1 ppm ([3]; Frankliniella occidentalis, 168 h, Table 3f, 11.1 ppm, read-out: Plant Protection (obs)) of the same compound?
**A.** 73.3%

**Q.** And the pest or weed control at 36.8 ppm ([3]; Frankliniella occidentalis, 168 h, Table 3f, 36.8 ppm, read-out: Plant Protection (obs))?
**A.** 90%

**Q.** What about the pest or weed control at 11.1 ppm ([3]; Frankliniella occidentalis, 168 h, Table 3g, 11.1 ppm, read-out: Plant Protection (obs)) of the same compound?
**A.** 20%

**Q.** What about the pest or weed control at 36.8 ppm ([3]; Frankliniella occidentalis, 168 h, Table 3g, 36.8 ppm, read-out: Plant Protection (obs)) of the same compound?
**A.** 73.3%

**Q.** And the pest or weed control at 2.93 ppm ([3]; Frankliniella occidentalis, 168 h, Table 3d, 2.93 ppm, read-out: Plant Protection (obs))?
**A.** 50%

**Q.** And the pest or weed control at 11.1 ppm ([3]; Frankliniella occidentalis, 168 h, Table 3d, 11.1 ppm, read-out: Plant Protection (obs))?
**A.** 60%

**Q.** What about the pest or weed control at 16.1 ppm ([3]; Frankliniella occidentalis, 168 h, Table 3d, 16.1 ppm, read-out: Plant Protection (obs)) of the same compound?
**A.** 86.7%

**Q.** What about the pest or weed control at 36.8 ppm ([3]; Frankliniella occidentalis, 168 h, Table 3d, 36.8 ppm, read-out: Plant Protection (obs)) of the same compound?
**A.** 93.3%

**Q.** What about the “Plant Damage (obs)” value ([3]; 11.1 ppm) of the same compound?
**A.** 43.3%

**Q.** What about the “Plant Damage (obs)” value ([3]; 36.8 ppm) of the same compound?
**A.** 86.7%

**Q.** And the “Plant Protection (obs)” value ([3]; Table 3b, 11.1 ppm)?
**A.** 40.0%

**Q.** And the “Plant Protection (obs)” value ([3]; Table 3b, 36.8 ppm)?
**A.** 86.7%

**Q.** What about the “Plant Protection (obs)” value ([3]; Table 3c, 11.1 ppm) of the same compound?
**A.** 36.7%

**Q.** And the “Plant Protection (obs)” value ([3]; Table 3c, 36.8 ppm)?
**A.** 70.0%

From patent US12419307B2, “Mixtures comprising indazole pesticides” (FMC Corporation, priority 2019, dated 2025)
